A value given as a limit tells only on which side of the number the result lay.

The assay concerns the target T1, Serine/threonine-protein phosphatase 5 (Homo sapiens, UniProt P53041).
T1 sequence (P53041 whole entry): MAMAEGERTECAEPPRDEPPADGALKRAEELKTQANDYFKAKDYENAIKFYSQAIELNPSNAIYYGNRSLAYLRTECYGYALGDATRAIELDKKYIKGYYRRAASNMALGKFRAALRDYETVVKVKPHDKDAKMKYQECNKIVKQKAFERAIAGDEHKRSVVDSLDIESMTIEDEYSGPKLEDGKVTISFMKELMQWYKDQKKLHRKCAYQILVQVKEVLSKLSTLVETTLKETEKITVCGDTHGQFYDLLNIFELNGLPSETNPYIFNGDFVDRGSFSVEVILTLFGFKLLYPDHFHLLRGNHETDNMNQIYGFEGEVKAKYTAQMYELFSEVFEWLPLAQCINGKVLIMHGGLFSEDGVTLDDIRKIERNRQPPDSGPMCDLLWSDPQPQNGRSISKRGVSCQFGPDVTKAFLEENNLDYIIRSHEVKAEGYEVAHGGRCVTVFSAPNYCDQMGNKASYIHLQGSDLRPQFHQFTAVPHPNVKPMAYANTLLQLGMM
Kind of assay: Fluorescence Polarization Assay. Conditions: pH 7.4; 25 °C. The procedure: All fluorescence polarization experiments were conducted in 384-well, black, low volume, round-bottomed plates (Corning) using a BioTeck Synergy 2 plate reader (Winooski, VT). For binding experiments, to each well was added increasing amounts of protein and the 5-carboxyfluorescein-labeled Hsp70/90 C-terminal probe/tracer (20 nM). […] The plate was allowed to incubate at room temperature for 5 min toreach equilibrium. […] An equilibrium binding isotherm was constructed by plotting the fluorescence polarization reading as a function of the protein concentration at a fixed concentration of tracer (20 nM).
For the compound H-DVEEM-OH [DVEEM], the Kd was more than 10000 nM.

Take `CC[C@H](C)[C@H](N)C(=O)N[C@@H](CCC(=O)O)C(=O)N[C@@H](CCC(=O)O)C(=O)N[C@H](C(=O)N[C@@H](CC(=O)O)C(=O)O)C(C)C` [IEEVD]: the Kd was 426 nM.

On to `CSCC[C@H](NC(=O)[C@H](CCCNC(=N)N)NC(=O)[C@H](CO)NC(=O)[C@H](C)NC(=O)[C@H](CC(=O)O)NC(=O)[C@@H](N)CCC(=O)O)C(=O)N[C@@H](CCC(=O)O)C(=O)N[C@@H](CCC(=O)O)C(=O)N[C@H](C(=O)N[C@@H](CC(=O)O)C(=O)O)C(C)C`, for which the Kd is 77 nM.

As for `CC[C@H](C)[C@H](NC(=O)[C@@H](NC(=O)[C@@H]1CCCN1C(=O)CNC(=O)[C@H](CO)NC(=O)[C@@H](N)CO)[C@@H](C)O)C(=O)N[C@@H](CCC(=O)O)C(=O)N[C@@H](CCC(=O)O)C(=O)N[C@H](C(=O)N[C@@H](CC(=O)O)C(=O)O)C(C)C`, the Kd was determined as 1060 nM.

As to H-DDTSRIEEVD-OH, the Kd was determined as 420 nM.

Consider `CSCC[C@H](NC(=O)[C@@H](NC(=O)[C@@H]1CCCN1C(=O)CNC(=O)[C@H](CO)NC(=O)CN)[C@@H](C)O)C(=O)N[C@@H](CCC(=O)O)C(=O)N[C@@H](CCC(=O)O)C(=O)N[C@H](C(=O)N[C@@H](CC(=O)O)C(=O)O)C(C)C`, for which the Kd worked out at 133 nM.

Source of the values: BindingDB's records for doi:10.1074/jbc.M113.519421 (University of Michigan, 2014).
